These results are taken from patent US20220347144A1, “COMPOSITIONS AND METHODS FOR PREVENTING AND/OR REDUCING WEIGHT GAIN AND ASSOCIATED CONDITIONS” (University of Virginia Patent Foundation, priority 2019, published 2022).

Entries after “also recorded” stand apart in the source; their conditions may differ.

Holding throughout (assay type): in vivo, mouse
Test [1] has as its system C57Bl/6J mice. The test can be described thus: Average food consumption over 12 weeks. Here is the method: (§1) Animals. Animal experiments were approved by the Animal Care and Use Committee of the University of Virginia (Charlottesville, Va., United States of America). C57Bl/6J mice were obtained from Jackson Laboratories (Bar Harbor, Me., United States of America). Mice were group housed in standard cages with up to five mice per cage with a 12 hour dark/light cycle. All mice were weighed once per week. Weekly food consumption was measured, with the amount consumed per cage averaged amongst the mice in the cage. Body composition was determined by use of an ECHOMRI™-100H Body Composition Analyzer (EchoMRI LLC, Houston, Tex., United States of America).

The subject of test [2] is C57Bl/6J mice. Kind of test: Liver acylcarnitine levels by LC-MS/MS. How it is done: Acylcarnitines were quantified as their butyl esters as described in Giesbertz et al., 2015. Briefly, liver tissue was extracted in ice-cold methanol spiked with stable-isotopically labeled internal standards (Cambridge Isotope Laboratories, Tewksbury, Mass., United States of America). Insoluble material was pelleted and the supernatant subsequently dried down under vacuum. Samples were solubilized in n-butanol containing 5% acetyl chloride and incubated for 60° C. for 20 minutes, Samples were subsequently dried down again and resuspended in 50:50 water:methanol for LC-ESI-MS/MS analysis. LC-MS/MS analysis was performed on a I-class Acquity with a 2.1 mm×10 cm C18 CSH […] particle size column coupled to an in-line TQ-S mass spectrometer using multiple reaction monitoring. Calibration curves were generated from standard mixtures of acylcarnitines from Cambridge Isotope Laboratories.

Test [3] concerns C57Bl/6J mice. Kind of test: Insulin Tolerance Test (ITT). Here is the method:
(§2) Insulin Tolerance Test (ITT) and Glucose Tolerance Test (GTT) and analysis of blood glucose and plasma insulin. ITT and GTT were performed as described in Lansey et al., 2012. Briefly, for ITT, random-fed mice were given an intraperitoneal injection (IP) of insulin (0.75 U/kg in 0.9% NaCl). Blood glucose levels were determined by a glucometer (Contour Next EZ Blood Glucose Monitoring System, Bayer, Leverkusen, Germany) at the indicated time points after injection. For GTT, mice were fasted for 16 hours prior to testing. D-Glucose, prepared the day before, was administered via an IP injection (1 g/kg), and blood glucose levels were determined by a glucometer at the indicated time points after injection. Plasma insulin levels were determined using a STELLUX® brand Chemi Rodent Insulin ELISA kit (Cat. No. 80-INSMR-CHO1; APLCO, Salem, N.H., United States of America) or an Ultrasensitive Rat/Mouse Insulin ELISA kit, Low Range Assay (Cat. No. 90060; Crystal Chem, Downers Grove, Ill., United States of America). The luminescence assay was conducted using a VICTOR2 Plate Reader (Perkin Elmer, Waltham, Mass., United States of America).

For test [4], the system named is C57Bl/6J mice. The test can be described thus: Body weight over 12 weeks on the diets. How it is done:
as §1
(§3) Diets. Diets were obtained from Research Diets (New Brunswick, N.J., United States of America). The low fat chow was D12450Ji (10 kcal % fat) and the high fat chow was D12492 (60 kcal % fat). These two chows were reformulated by replacing a portion of dietary fat with an ethyl ester of nervonic acid from Nu-Chek Prep (Elysian, Minn., United States of America) to produce isocaloric diets with nervonic acid at 6 g per kg of diet (0.6%). For the three most prevalent fatty acids in these diets: C16 comprised 14.4%, 11.7%, 18.5%, and 18.1%; C18:1 comprised 27.4%, 22.8%, 32%, and 31.4%; and C18:2 comprised 39.6%, 36.2%, 26.9%, and 26.5% of the fatty acid composition of the Cnt, Cnt+NA, HFD, and HFD+NA diets, respectively. Mice were started on diets at ˜8 weeks of age and given ad libitum access.

For test [5], the system named is C57Bl/6J mice. Kind of test: Fecal caloric content by bomb calorimetry. Here is the method: For determination of energy expenditure, respiratory exchange ratios, and activity, mice were placed in an Oxymax metabolic chamber systems (Comprehensive Laboratory Animal Monitoring System, CLAMS, from Columbus Instruments (Columbus, Ohio, United States of America). Oxygen consumption (V02) and carbon dioxide production (VCO2) were determined for each mouse every 18 minutes over 72 hours with ambulatory activity assessed every minute over this same time period. Only the last two complete light and dark cycles (spanning 48 hours) were used for data analysis. Feces was collected from these studies and shipped to the Mouse Metabolic Phenotyping Core at the University of Texas Southwestern for bomb calorimetry analysis using a Parr 6200 Isoperibol Calorimeter (Parr Instrument Company, Moline, Ill., United States of America).

Test [6] deals with C57Bl/6J mice. Kind of test: Plasma C24:1-ceramides after 72 hours on the diets. Particulars: control and HFDs; 72 hours on diets.
From the text: as §3
Sphingolipid and acylcarnitine measurements by liquid chromatography-mass spectrometry. Sphingolipids were analyzed as described previously (Wijesinghe et al., 2010) for FIG. 1B or with modifications described herein. Liver samples from rats fed a low or high fat diet were obtained from Scot Kimball's laboratory at the Pennsylvania State University (Hershey, Pa.). Mouse liver samples were analyzed with modifications as described previously (Pearson et al., 2020). […]

The subject of test [7] is C57Bl/6J mice. The test can be described thus: Plasma insulin (fasting and after IP glucose). Particulars: for fasting (basal) plasma insulin levels: HFD+NA versus HFD; for fasting (basal) plasma insulin levels / fasting plasma insulin levels: 8 weeks; for increase in insulin after intraperitoneal administration of glucose: HFD+NA, 30 min after IP glucose; for fasting plasma insulin levels: control diet with NA. How it is done: as §2
For assessment of insulin, blood was collected with heparinized capillary tubes and subsequently centrifuged to obtain plasma. Insulin levels was then determined using a STELLUX® Chemi Rodent Insulin ELISA kit (Catalog No. 80-INSMR-CHO1, APLCO, Salem, N.H., United States of America) or an Ultrasensitive Rat/Mouse Insulin ELISA kit low range (Cat. No 90060; Crystal Chem, Downers Grove, Ill., United States of America). The luminescence assay was conducted using a VICTOR2 Plate Reader (Perkin Elmer, Waltham, Mass., United States of America).

Setting [8] is: NA enrichment in both the control diet and the HFD.

As to (Z)-tetracos-15-enoic acid [NA], in the test with C57Bl/6J mice [1] (HFD+NA versus HFD, 12 weeks), the average food consumption entry is listed as “similar”. In the test with C57Bl/6J mice [1] (control+NA versus control), the food consumption entry is “not significantly different”. For the same substance, in the test with C57Bl/6J mice [2] (HFD enriched with NA), the “dicarboxyl-acylcarnitines C5 (C5-DC) and C6 (C6-DC) levels in liver” value is listed as “teductions”. For the same substance, the “long-chain acylcarnitines in liver” value in the test with C57Bl/6J mice [2] (HFD+NA versus HFD) is listed as “significant decreases; also recorded: largely restored to control levels”. In addition, the “hydroxyl-fatty acylcarnitines in liver” value with C57Bl/6J mice [2] (NA enrichment in both diets, C4-OH, C6-OH, C10-OH, C8-OH) is recorded as “increased”. The “acetyl-carnitine (C2) in liver” value in the test on C57Bl/6J mice [2] (setting [8]) is reported as “increased”. Further, the “free carnitine (C0) in liver” value with C57Bl/6J mice [2] (setting [8]) is “increased”. The “response of blood glucose to insulin injection” value with C57Bl/6J mice [3] (HFD+NA, 11 weeks on diets) is recorded as “responded similarly to mice on control diets”; in the test on C57Bl/6J mice [3] (HFD+NA, 11 weeks on diets, listed as nervonic acid), “responded similarly to mice on the control diet”; in the test on C57Bl/6J mice [3] (control diet containing NA), “responded similar to mice on the control diet alone”; with C57Bl/6J mice [3] (control diet containing NA, listed as nervonic acid) it was “responded similar to the control diet”. The body weight gain result in the test on C57Bl/6J mice [4] (HFD+NA versus HFD, 12 weeks) is “significantly less body weight gain”. Further, the body weights entry with C57Bl/6J mice [4] (HFD+NA versus control diet, 12 weeks) is given as “not significantly different”. The “body weight gains over time” value with C57Bl/6J mice [4] (NA-enriched control diet versus control diet) is on record as “significantly less body weight gains over time”. Besides, the fecal caloric content entry in the test on C57Bl/6J mice [5] (HFD+NA versus HFD) and in the test with C57Bl/6J mice [5] (control+NA versus control) was “No differences” in each case. For the same substance, the “plasma C24:1-ceramides” value in the test on C57Bl/6J mice [6] was “significant increases”. In addition, the “fasting (basal) plasma insulin levels” value with C57Bl/6J mice [7] is “significantly reduced”; in the test on C57Bl/6J mice [7] (listed as nervonic acid) it was “reduced insulin levels”. The “increase in insulin after intraperitoneal administration of glucose” value in the test on C57Bl/6J mice [7] is recorded as “no such increase”; in the test with C57Bl/6J mice [7] (listed as nervonic acid), “not observed”. In addition, the “fasting plasma insulin levels” value in the test with C57Bl/6J mice [7] is “did not affect insulin levels”; with C57Bl/6J mice [7] (listed as nervonic acid) it was “did not influence insulin levels”.
